Literature values as cited in article PMC11678311, “Log BB Prediction Models Using TLC and HPLC Retention Values as Protein Affinity Data” (Pharmaceutics, 2024).

Conditions: drugs highly bound to plasma proteins whose log BB may be less than zero

Row | SMILES | penetration of the blood–brain barrier / central action
1 | CC(C)Cc1ccc(C(C)C(=O)O)cc1 (centres unmarked) [ibuprofen] | cross the blood–brain barrier in an unbound state and act centrally
2 | Cc1ncc2n1-c1ccc(Cl)cc1C(c1ccccc1F)=NC2 [midazolam] | cross the blood–brain barrier in an unbound state and act centrally
